Measured values reported in patent US9296745B2, “Diacylglycerol acyltransferase 2 inhibitors” (Pfizer Inc., priority 2012, dated 2016).

Molecular target: Human DGAT2 (hDGAT2) (Homo sapiens (Human), UniProt Q96PD7)
Test: In vitro DGAT2 assay, IC50 determination with hDGAT2 membrane fraction
Assay type: biochemical
Details: geometric mean; background for complete inhibition of DGAT2 obtained with 50 μM (1R,2R)-2-({3′-Fluoro-4′-[(6-fluoro-1,3-benzothiazol-2-yl)amino]-1,1′-biphenyl-4-yl}carbonyl)cyclopentanecarboxylic acid; read-out: DGAT2 IC50
In short: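 CHAPS-solubilized membrane fraction of FLAG-tagged hDGAT2 from baculovirus-infected SF9 cells (0.01 mg/mL) in 100 mM Hepes-NaOH pH 7.4, 20 mM MgCl2, 200 nM methyl arachidonyl fluorophosphonate; compounds pre-incubated 20 min with 0.04% BSA. Reaction 40 min at room temperature, stopped with H3PO4. [^14C]tridecanoylglycerol in organic phase counted; 11-point geometric mean IC50.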

Sequence of Human DGAT2 (hDGAT2) (Q96PD7 whole entry): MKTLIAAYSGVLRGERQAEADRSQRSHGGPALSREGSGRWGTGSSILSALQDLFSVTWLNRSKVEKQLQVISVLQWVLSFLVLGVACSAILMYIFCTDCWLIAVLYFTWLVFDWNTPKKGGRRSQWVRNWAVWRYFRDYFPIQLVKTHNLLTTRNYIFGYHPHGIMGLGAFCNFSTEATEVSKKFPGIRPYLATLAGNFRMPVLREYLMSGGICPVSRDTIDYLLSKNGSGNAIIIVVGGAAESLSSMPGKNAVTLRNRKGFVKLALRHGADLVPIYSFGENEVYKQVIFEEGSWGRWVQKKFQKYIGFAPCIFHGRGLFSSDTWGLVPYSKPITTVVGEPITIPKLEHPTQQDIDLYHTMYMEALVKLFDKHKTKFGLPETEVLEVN

| Compound | IC50 |
| --- | --- |
| Cc1ccn(C2(c3nc4ccc(N5CCC[C@@H](C(=O)N6CCCC6)C5)nc4[nH]3)CC2)n1 [Example 89, (R)-(1-(2-(1-(3-Methyl-1H-pyrazol-1-yl)cyclopropyl)-3H-imidazo[4,5-b]pyridin-5-yl)piperidin-3-yl)(pyrrolidin-1-yl)methanone] | 546 nM |
| Cc1ccnn1C1(c2nc3ccc(N4CCC[C@@H](C(=O)N5CCCC5)C4)nc3[nH]2)CC1 [Example 90, (R)-(1-(2-(1-(5-methyl-1H-pyrazol-1-yl)cyclopropyl)-3H-imidazo[4,5-b]pyridin-5-yl)piperidin-3-yl)(pyrrolidin-1-yl)methanone] | 315 nM |
| COc1ccccc1C1(c2nc3ccc(N4CCC[C@@H](C(=O)N5CCCC5)C4)nc3[nH]2)CC1 [Example 92, (R)-(1-(2-(1-(2-Methoxyphenyl)cyclopropyl)-3H-imidazo[4,5-b]pyridin-5-yl)piperidin-3-yl)(pyrrolidin-1-yl)methanone] | 242 nM |
| O=C([C@@H]1CCCN(c2ccc3nc(C4(c5ccon5)CC4)[nH]c3n2)C1)N1CCCC1 [Example 93, (R)-(1-(2-(1-(Isoxazol-3-yl)cyclopropyl)-3H-imidazo[4,5-b]pyridin-5-yl)piperidin-3-yl)(pyrrolidin-1-yl)methanone] | 202 nM |
| CCOC(=O)c1cc(OC)nc(-c2nc3ccc(N4CCC[C@@H](C(=O)N5CCCC5)C4)nc3[nH]2)c1 [Example 96, (R)-Ethyl 2-methoxy-6-(5-(3-(pyrrolidine-1-carbonyl)piperidin-1-yl)-3H-imidazo[4,5-b]pyridin-2-yl)isonicotinate] | 37.3 nM |
| Cc1cccc(C2(c3nc4ccc(N5CCC[C@@H](C(=O)N6CCCC6)C5)nc4[nH]3)CC2)c1 [Example 97, (R)-Pyrrolidin-1-yl(1-(2-(1-m-tolylcyclopropyl)-3H-imidazo[4,5-b]pyridin-5-yl)piperidin-3-yl)methanone] | 96.9 nM |
| O=C([C@@H]1CCCN(c2ccc3nc(-c4cc(C5CC5)ccn4)[nH]c3n2)C1)N1CCCC1 [Example 98, (R)-(1-(2-(4-Cyclopropylpyridin-2-yl)-3H-imidazo[4,5-b]pyridin-5-yl)piperidin-3-yl)(pyrrolidin-1-yl)methanone] | 94.4 nM |
| O=C([C@@H]1CCCN(c2ccc3nc(-c4nccc(C5CC5)n4)[nH]c3n2)C1)N1CCCC1 [Example 99, (R)-(1-(2-(4-Cyclopropylpyrimidin-2-yl)-3H-imidazo[4,5-b]pyridin-5-yl)piperidin-3-yl)(pyrrolidin-1-yl)methanone] | 72.5 nM |
| CNS(=O)(=O)c1cncc(-c2nc3ccc(N4CCC[C@@H](C(=O)N5CCCC5)C4)nc3[nH]2)c1 [Example 100, (R)-N-Methyl-5-(5-(3-(pyrrolidine-1-carbonyl)piperidin-1-yl)3H-imidazo[4,5-b]pyridin-2-yl)pyridine-3-sulfonamide] | 47.8 nM |
| O=C([C@@H]1CCCN(c2ccc3nc(-c4cncc(C5CC5)n4)[nH]c3n2)C1)N1CCCC1 [Example 101, (R)-(1-(2-(6-Cyclopropylpyrazin-2-yl)-3H-imidazo[4,5-b]pyridin-5-yl)piperidin-3-yl)(pyrrolidin-1-yl)methanone] | 60.5 nM |
| COc1cccc(C2(c3nc4ccc(N5CCC[C@@H](C(=O)N6CCCC6)C5)nc4[nH]3)CC2)c1 [Example 102, (R)-(1-(2-(1-(3-Methoxyphenyl)cyclopropyl)-3H-imidazo[4,5-b]pyridin-5-yl)piperidin-3-yl)(pyrrolidin-1-yl)methanone] | 99.6 nM |
| Cc1ccc(C2(c3nc4ccc(N5CCC[C@@H](C(=O)N6CCCC6)C5)nc4[nH]3)CC2)cc1 [Example 103, (R)-Pyrrolidin-1-yl(1-(2-(1-(p-tolyl)cyclopropyl)-3H-imidazo[4,5-b]pyridin-5-yl)piperidin-3-yl)methanone] | 73.7 nM |
| Cn1nccc1C1(c2nc3ccc(N4CCC[C@@H](C(=O)N5CCCC5)C4)nc3[nH]2)CC1 [Example 104, (R)-(1-(2-(1-(1-Methyl-1H-pyrazol-5-yl)cyclopropyl)-3H-imidazo[4,5-b]pyridin-5-yl)piperidin-3-yl)(pyrrolidin-1-yl)methanone] | 190 nM |
| CCOC(=O)c1cc(CC)nc(-c2nc3ccc(N4CCC[C@@H](C(=O)N5CCCC5)C4)nc3[nH]2)c1 [Example 105, (R)-Ethyl 2-ethyl-6-(5-(3-(pyrrolidine-1-carbonyl)piperidin-1-yl)-3H-imidazo[4,5-b]pyridin-2-yl)isonicotinate] | 28.9 nM |
| O=C([C@@H]1CCCN(c2ccc3nc(C4(c5ccc(C(F)(F)F)cc5)CC4)[nH]c3n2)C1)N1CCCC1 [Example 106, (R)-Pyrrolidin-1-yl(1-(2-(1-(4-(trifluoromethyl)phenyl)cyclopropyl)-3H-imidazo[4,5-b]pyridin-5-yl)piperidin-3-yl)methanone] | 5.68 nM |
| O=C([C@@H]1CCCN(c2ccc3nc(-c4cncc(C5CC5)n4)[nH]c3n2)C1)N1CCOCC1 [Example 107, (R)-(1-(2-(6-Cyclopropylpyrazin-2-yl)-3H-imidazo[4,5-b]pyridin-5-yl)piperidin-3-yl)(morpholino)methanone] | 153 nM |

| Compound | IC50 |
| --- | --- |
| COC(=O)Cc1cccc(-c2nc3ccc(N4CCC[C@@H](C(=O)N5CCCC5)C4)nc3[nH]2)c1 [Example 110, (R)-Methyl 2-(3-(5-(3-(pyrrolidine-1-carbonyl)piperidin-1-yl)-3H-imidazo[4,5-b]pyridin-2-yl)phenyl)acetate] | 41.5 nM |
| O=C([C@@H]1CCCN(c2ccc3nc(-c4cccc(C5(O)COC5)n4)[nH]c3n2)C1)N1CCCC1 [Example 111, (R)-(1-(2-(6-(3-Hydroxyoxetan-3-yl)pyridin-2-yl)-3H-imidazo[4,5-b]pyridin-5-yl)piperidin-3-yl)(pyrrolidin-1-yl)methanone] | 697 nM |
| O=C([C@@H]1CCCN(c2ccc3nc(-c4cccc(C(F)(F)F)n4)[nH]c3n2)C1)N1CCCC1 [Example 112, (R)-Pyrrolidin-1-yl(1-(2-(6-(trifluoromethyl)pyridin-2-yl)-3H-imidazo[4,5-b]pyridin-5-yl)piperidin-3-yl)methanone] | 9.23 nM |
| O=C([C@@H]1CCCN(c2ccc3nc(-c4cncc(F)c4)[nH]c3n2)C1)N1CCCC1 [Example 113, (R)-(1-(2-(5-Fluoropyridin-3-yl)-3H-imidazo[4,5-b]pyridin-5-yl)piperidin-3-yl)(pyrrolidin-1-yl)methanone] | 137 nM |
| NS(=O)(=O)c1cccc(-c2nc3ccc(N4CCC[C@@H](C(=O)N5CCCC5)C4)nc3[nH]2)c1 [Example 114, (R)-3-(5-(3-(Pyrrolidine-1-carbonyl)piperidin-1-yl)-3H-imidazo[4,5-b]pyridin-2-yl)benzenesulfonamide] | 90.3 nM |
| CC(C)(O)c1cccc(-c2nc3ccc(N4CCC[C@@H](C(=O)N5CCCC5)C4)nc3[nH]2)n1 [Example 115, (R)-(1-(2-(6-(2-Hydroxypropan-2-yl)pyridin-2-yl)-3H-imidazo[4,5-b]pyridin-5-yl)piperidin-3-yl)(pyrrolidin-1-yl)methanone] | 67.9 nM |
| O=C([C@@H]1CCCN(c2ccc3nc(-c4ccccc4)[nH]c3n2)C1)N1CCCC1 [Example 116, (R)-(1-(2-Phenyl-3H-imidazo[4,5-b]pyridin-5-yl)piperidin-3-yl)(pyrrolidin-1-yl)methanone] | 66.2 nM |
| O=C([C@@H]1CCCN(c2ccc3nc(-c4coc(C5CC5)n4)[nH]c3n2)C1)N1CCCC1 [Example 118, (R)-(1-(2-(2-Cyclopropyloxazol-4-yl)-3H-imidazo[4,5-b]pyridin-5-yl)piperidin-3-yl)(pyrrolidin-1-yl)methanone] | 301 nM |
| CN(C)c1cccc(-c2nc3ccc(N4CCC[C@@H](C(=O)N5CCCC5)C4)nc3[nH]2)n1 [Example 119, (R)-(1-(2-(6-(Dimethylamino)pyridin-2-yl)-3H-imidazo[4,5-b]pyridin-5-yl)piperidin-3-yl)(pyrrolidin-1-yl)methanone] | 22.2 nM |
| O=C([C@@H]1CCCN(c2ccc3nc(-c4cccc(N5CCC5)n4)[nH]c3n2)C1)N1CCCC1 [Example 120, (R)-(1-(2-(6-(Azetidin-1-yl)pyridin-2-yl)-3H-imidazo[4,5-b]pyridin-5-yl)piperidin-3-yl)(pyrrolidin-1-yl)methanone] | 21.5 nM |
| O=C([C@@H]1CCCN(c2ccc3nc(-c4cccc(OC(F)F)n4)[nH]c3n2)C1)N1CCCC1 [Example 121, (R)-(1-(2-(6-(Difluoromethoxy)pyridin-2-yl)-3H-imidazo[4,5-b]pyridin-5-yl)piperidin-3-yl)(pyrrolidin-1-yl)methanone] | 14.3 nM |
| O=C([C@@H]1CCCN(c2ccc3nc(-c4cccc(C(F)F)n4)[nH]c3n2)C1)N1CCCC1 [Example 122, (R)-(1-(2-(6-(Difluoromethyl)pyridin-2-yl)-3H-imidazo[4,5-b]pyridin-5-yl)piperidin-3-yl)(pyrrolidin-1-yl)methanone] | 10.9 nM |
| COC(=O)c1cccc(-c2nc3ccc(N4CCC[C@@H](C(=O)N5CCCC5)C4)nc3[nH]2)n1 [Example 123, (R)-Methyl 6-(5-(3-(pyrrolidine-1-carbonyl)piperidin-1-yl)-1H-imidazo[4,5-b]pyridin-2-yl)picolinate] | 276 nM |
| CCOC(=O)C1(c2cccc(-c3nc4ccc(N5CCC[C@@H](C(=O)N6CCCC6)C5)nc4[nH]3)c2)CC1 [Example 124, (R)-Ethyl 1-(3-(5-(3-(pyrrolidine-1-carbonyl)piperidin-1-yl)-3H-imidazo[4,5-b]pyridin-2-yl)phenyl)cyclopropanecarboxylate] | 5.27 nM |
| COC(=O)c1cccc(-c2nc3ccc(N4CCC[C@@H](C(=O)N5CCCC5)C4)nc3[nH]2)c1 [Example 125, (R)-Methyl 3-(5-(3-(pyrrolidine-1-carbonyl)piperidin-1-yl)-3H-imidazo[4,5-b]pyridin-2-yl)benzoate] | 54 nM |
